{"source": "patent US20160002391A1", "about": "“POLYMERS, SUBSTRATES, METHODS FOR MAKING SUCH, AND DEVICES COMPRISING THE SAME” (AVERTICA, INC., priority 2013, published 2016)", "note": "Where a name gives a salt, the structure may show the parent alone.", "data": [{"test_system": "mushroom tyrosinase (polyphenol oxidase)", "test": "Polymer production in enzymatic tyrosinase (polyphenol oxidase) reaction", "type": "biochemical", "parameters": "key: +++: Reacted within about 1 hour; ++: reacted within about 3 hours; +: reacted within about 24 hours; +/−: inconclusive results; −: no reaction", "settings": "approx. 50 mM potassium phosphate buffer pH 6.5, approx. 5 mM substrate, observed over 24 hour period", "procedure": "(§1) All reactions were carried out in approximately 50 mM potassium phosphate buffer, pH 6.5 with approximately 5 mM substrate and mushroom tyrosinase (polyphenol oxidase) Sigma T3824 in an amount of 100 to 10,000 units. Reaction volumes varied from 200 μl to 2 ml. In cases where substrates were not completely solubilized, then a saturated solution was used as the limit of solubility. In some cases, a solution of DMSO was used to increase solubility of the substrates. […] The reactions were observed over a 24 hour period for the production of polymers, and the presence and color of polymer and solution was recorded.\n(§2) The production of polymers in each reaction was visible as a precipitate in the well of a 96 well plate or in the reaction mixture on a glass slide.", "values": [{"smiles": "Oc1ccc2cc(O)ccc2c1", "note": "[2,6 dihydroxnaphthalene]", "Result (polymer production in tyrosinase reaction)": "+ (reacted within about 24 hours)"}, {"smiles": "Oc1ccc2[nH]ccc2c1", "note": "[5-hydroxyindole]", "Result (polymer production in tyrosinase reaction)": "+++ (Reacted within about 1 hour)"}, {"smiles": "Oc1ccc2cc[nH]c2c1", "note": "[6 Hydroxyindole]", "Result (polymer production in tyrosinase reaction)": "++ (reacted within about 3 hours)"}, {"smiles": "Cl.NCCc1ccccc1", "note": "[Beta phenylethylamine HCL]", "Result (polymer production in tyrosinase reaction)": "+/−"}, {"smiles": "c1ccc2[nH]ccc2c1", "note": "[Indole]", "Result (polymer production in tyrosinase reaction)": "−"}, {"smiles": "CN[C@@H](Cc1ccc(O)cc1)C(=O)O", "note": "[N-methyl tyrosine]", "Result (polymer production in tyrosinase reaction)": "++ (reacted within about 3 hours)"}, {"smiles": "Cl.NCCc1ccc(O)cc1", "note": "[Tyramine HCl]", "Result (polymer production in tyrosinase reaction)": "+++ (Reacted within about 1 hour)"}, {"smiles": "NCCc1ccc(O)cc1", "note": "[Tyramine]", "Result (polymer production in tyrosinase reaction)": "+++ (Reacted within about 1 hour)"}, {"smiles": "N[C@@H](Cc1ccc(O)cc1)C(=O)O", "note": "[Tyrosine]", "Result (polymer production in tyrosinase reaction)": "++ (reacted within about 3 hours)"}]}, {"test_system": "mushroom tyrosinase (polyphenol oxidase)", "test": "Polymer production in enzymatic tyrosinase (polyphenol oxidase) reaction", "type": "biochemical", "parameters": "key: +++: Reacted within about 1 hour; ++: reacted within about 3 hours; +: reacted within about 24 hours; +/−: inconclusive results; −: no reaction", "settings": "as above; substrate (or marked component) dissolved in 20% DMSO", "procedure": "as §1, §2", "values": [{"smiles": "Oc1ccc(-c2cc(-c3ccc(O)cc3)cc(-c3ccc(O)cc3)c2)cc1", "note": "[1,3,5 Tris(4hydroxyphenyl)benzene]", "Result (polymer production in tyrosinase reaction)": "+ (reacted within about 24 hours)"}, {"smiles": "Oc1ccc2c(c1)[nH]c1ccccc12", "note": "[2 Hydroxy carbazole]", "Result (polymer production in tyrosinase reaction)": "−"}, {"smiles": "CC1=NCCc2c1[nH]c1cc(O)ccc21", "note": "[Harmalol HCl dehydrate]", "Result (polymer production in tyrosinase reaction)": "−"}]}, {"test_system": "mushroom tyrosinase (phenyl oxidase)", "test": "Substituted substrates for phenol oxidases: polymer formation with mushroom tyrosinase", "type": "biochemical", "settings": "5 mM potassium phosphate buffer, 200 Units tyrosinase, up to 3 hours", "procedure": "6-hydroxyindole, 6-hydroxyindole-3-carboxaldehyde, 1,2-dihydroxybenzene (catechol), 2,3-dihydroxybenzaldehyde, and 3,4-dihydroxybenezaldehyde were used as substrates for phenol oxidases.\n6-hydroxyindole, 6-hydroxyindole-3-carboxaldehyde, 1,2-dihydroxybenzene (catechol), 2,3-dihydroxybenzaldehyde, and 3,4-dihydroxybenezaldehyde were dissolved in water at a concentration of 0.03 g/ml. Ten microliters of each was diluted into 90 microliter of 5 mM potassium phosphate buffer and 2 μl of mushroom tyrosinase (phenyl oxidase, 200 Units) was added. The reactions were allowed to proceed for up to 3 hours. […] Buffer alone with no substrates were used as controls and were negative for polymer formation.", "values": [{"smiles": "Oc1ccccc1O", "note": "[1,2-dihydroxybenzene (catechol), 1,2-dihydroxybenzene]", "Polymer formation with mushroom tyrosinase": "Polymers were formed"}, {"smiles": "O=Cc1cccc(O)c1O", "note": "[2,3-dihydroxybenzaldehyde]", "Polymer formation with mushroom tyrosinase": "Polymers were formed"}, {"smiles": "O=Cc1ccc(O)c(O)c1", "note": "[3,4-dihydroxybenezaldehyde]", "Polymer formation with mushroom tyrosinase": "Polymers were formed"}, {"smiles": "Oc1ccc2cc[nH]c2c1", "note": "[6 Hydroxyindole]", "Polymer formation with mushroom tyrosinase": "Polymers were formed"}, {"smiles": "O=Cc1c[nH]c2cc(O)ccc12", "note": "[6-hydroxyindole-3-carboxaldehyde]", "Polymer formation with mushroom tyrosinase": "Polymers were formed"}]}]}
